Measurements reported in PubChem BioAssay AID1259407 (Chemical Carcinogenesis Research Information System (CCRIS), 2018).
Calls of active or inactive are those of the source. The rule behind the calls is not given here.

Tested on: CCRIS mutagenicity, Ames/micronucleus/aberration tests
Assay: CCRIS mutagenicity studies
[1] = Test System: AMES SALMONELLA TYPHIMURIUM, Strain/Indicator: TA97, Metabolic Activation: HAMSTER, LIVER, S-9, AROCLOR 1254 (10%), Method: PREINCUBATION
[2] = Test System: AMES SALMONELLA TYPHIMURIUM, Strain/Indicator: TA97, Metabolic Activation: HAMSTER, LIVER, S-9, AROCLOR 1254 (30%), Method: PREINCUBATION
[3] = Test System: AMES SALMONELLA TYPHIMURIUM, Strain/Indicator: TA97, Metabolic Activation: NONE, Method: PREINCUBATION
[4] = Test System: AMES SALMONELLA TYPHIMURIUM, Strain/Indicator: TA97, Metabolic Activation: RAT, LIVER, S-9, AROCLOR 1254 (10%), Method: PREINCUBATION
[5] = Test System: AMES SALMONELLA TYPHIMURIUM, Strain/Indicator: TA97, Metabolic Activation: RAT, LIVER, S-9, AROCLOR 1254 (30%), Method: PREINCUBATION
[6] = Test System: AMES SALMONELLA TYPHIMURIUM, Strain/Indicator: TA98, Metabolic Activation: HAMSTER, LIVER, S-9, AROCLOR 1254 (10%), Method: PREINCUBATION
[7] = Test System: AMES SALMONELLA TYPHIMURIUM, Strain/Indicator: TA98, Metabolic Activation: HAMSTER, LIVER, S-9, AROCLOR 1254 (30%), Method: PREINCUBATION
[8] = Test System: AMES SALMONELLA TYPHIMURIUM, Strain/Indicator: TA98, Metabolic Activation: NONE, Method: PREINCUBATION
[9] = Test System: AMES SALMONELLA TYPHIMURIUM, Strain/Indicator: TA98, Metabolic Activation: RAT, LIVER, S-9, AROCLOR 1254 (10%), Method: PREINCUBATION
[10] = Test System: AMES SALMONELLA TYPHIMURIUM, Strain/Indicator: TA98, Metabolic Activation: RAT, LIVER, S-9, AROCLOR 1254 (30%), Method: PREINCUBATION
[11] = Test System: AMES SALMONELLA TYPHIMURIUM, Strain/Indicator: TA100, Metabolic Activation: HAMSTER, LIVER, S-9, AROCLOR 1254 (10%), Method: PREINCUBATION
[12] = Test System: AMES SALMONELLA TYPHIMURIUM, Strain/Indicator: TA100, Metabolic Activation: HAMSTER, LIVER, S-9, AROCLOR 1254 (30%), Method: PREINCUBATION
[13] = Test System: AMES SALMONELLA TYPHIMURIUM, Strain/Indicator: TA100, Metabolic Activation: NONE, Method: PREINCUBATION
[14] = Test System: AMES SALMONELLA TYPHIMURIUM, Strain/Indicator: TA100, Metabolic Activation: RAT, LIVER, S-9, AROCLOR 1254 (10%), Method: PREINCUBATION
[15] = Test System: AMES SALMONELLA TYPHIMURIUM, Strain/Indicator: TA100, Metabolic Activation: RAT, LIVER, S-9, AROCLOR 1254 (30%), Method: PREINCUBATION
[16] = Test System: AMES SALMONELLA TYPHIMURIUM, Strain/Indicator: TA1535, Metabolic Activation: HAMSTER, LIVER, S-9, AROCLOR 1254 (10%), Method: PREINCUBATION
[17] = Test System: AMES SALMONELLA TYPHIMURIUM, Strain/Indicator: TA1535, Metabolic Activation: HAMSTER, LIVER, S-9, AROCLOR 1254 (30%), Method: PREINCUBATION
[18] = Test System: AMES SALMONELLA TYPHIMURIUM, Strain/Indicator: TA1535, Metabolic Activation: NONE, Method: PREINCUBATION
[19] = Test System: AMES SALMONELLA TYPHIMURIUM, Strain/Indicator: TA1535, Metabolic Activation: RAT, LIVER, S-9, AROCLOR 1254 (10%), Method: PREINCUBATION
[20] = Test System: AMES SALMONELLA TYPHIMURIUM, Strain/Indicator: TA1537, Metabolic Activation: HAMSTER, LIVER, S-9, AROCLOR 1254 (30%), Method: PREINCUBATION
[21] = Test System: AMES SALMONELLA TYPHIMURIUM, Strain/Indicator: TA1537, Metabolic Activation: NONE, Method: PREINCUBATION
[22] = Test System: AMES SALMONELLA TYPHIMURIUM, Strain/Indicator: TA1535, Metabolic Activation: RAT, LIVER, S-9, AROCLOR 1254 (30%), Method: PREINCUBATION

SMILES: CC(CCl)OP(=O)(OC(C)CCl)OC(C)CCl (centres undefined)
- mutagenic call [1]: inactive; negative
- mutagenic call [2]: inactive; negative
- mutagenic call [3]: inactive; negative
- mutagenic call [4]: inactive; negative
- mutagenic call [5]: inactive; negative
- mutagenic call [6]: inactive; negative
- mutagenic call [7]: inactive; negative
- mutagenic call [8]: inactive; negative
- mutagenic call [9]: inactive; negative
- mutagenic call [10]: inactive; negative
- mutagenic call [11]: inactive; negative
- mutagenic call [12]: inactive; negative
- mutagenic call [13]: inactive; negative
- mutagenic call [14]: inactive; negative
- mutagenic call [15]: inactive; negative
- mutagenic call [16]: inactive; negative
- mutagenic call [17]: inactive; negative
- mutagenic call [18]: inactive; negative
- mutagenic call (Test System: AMES SALMONELLA TYPHIMURIUM, Strain/Indicator: TA1535, Metabolic Activation: RAT, LIVER, S-9, AROCLOR 1254 (5 OR 30%), Method: PREINCUBATION): inactive; negative
- mutagenic call [19]: inactive; negative
- mutagenic call [20]: inactive; negative
- mutagenic call [21]: inactive; negative
- mutagenic call (Test System: AMES SALMONELLA TYPHIMURIUM, Strain/Indicator: TA1537, Metabolic Activation: RAT, LIVER, S-9, AROCLOR 1254 (30%), Method: PREINCUBATION): inactive; negative

SMILES: CC1CCCC1
- mutagenic call [1]: inactive; negative
- mutagenic call [2]: inactive; negative
- mutagenic call [3]: inactive; negative
- mutagenic call [4]: inactive; negative
- mutagenic call [5]: inactive; negative
- mutagenic call [6]: inactive; negative
- mutagenic call [7]: inactive; negative
- mutagenic call [8]: inactive; negative
- mutagenic call [9]: inactive; negative
- mutagenic call [10]: inactive; negative
- mutagenic call [11]: inactive; negative
- mutagenic call [12]: inactive; negative
- mutagenic call [13]: inactive; negative
- mutagenic call [14]: inactive; negative
- mutagenic call [15]: inactive; negative
- mutagenic call [16]: inactive; negative
- mutagenic call [17]: inactive; negative
- mutagenic call [18]: inactive; negative
- mutagenic call [19]: inactive; negative
- mutagenic call [22]: inactive; negative

SMILES: CC(=O)N(O)CCCCCNC(=O)CCC(=O)N(O)CCCCCNC(=O)CCC(=O)N(O)CCCCCN
- mutagenic call (Test System: MOUSE LYMPHOMA, Strain/Indicator: L5178Y (TK+/TK-), Metabolic Activation: NONE, Method: SUSPENSION/PLATE): active; positive. reevaluation of results: positive
- mutagenic call (Test System: MOUSE LYMPHOMA, Strain/Indicator: L5178Y (TK+/TK-), Metabolic Activation: RAT, LIVER, S-9, AROCLOR 1254, Method: SUSPENSION/PLATE): active; positive. reevaluation of results: positive

SMILES: C=C(C)C(=O)O
- mutagenic call (Test System: AMES SALMONELLA TYPHIMURIUM, Strain/Indicator: TA98, Metabolic Activation: HAMSTER, LIVER, S-9, AROCLOR 1254, Method: PREINCUBATION): inactive; negative
- mutagenic call [8]: inactive; negative
- mutagenic call (Test System: AMES SALMONELLA TYPHIMURIUM, Strain/Indicator: TA98, Metabolic Activation: RAT, LIVER, S-9, AROCLOR 1254, Method: PREINCUBATION): inactive; negative
- mutagenic call (Test System: AMES SALMONELLA TYPHIMURIUM, Strain/Indicator: TA100, Metabolic Activation: HAMSTER, LIVER, S-9, AROCLOR 1254, Method: PREINCUBATION): inactive; negative
- mutagenic call [13]: inactive; negative
- mutagenic call (Test System: AMES SALMONELLA TYPHIMURIUM, Strain/Indicator: TA100, Metabolic Activation: RAT, LIVER, S-9, AROCLOR 1254, Method: PREINCUBATION): inactive; negative
- mutagenic call (Test System: AMES SALMONELLA TYPHIMURIUM, Strain/Indicator: TA1535, Metabolic Activation: HAMSTER, LIVER, S-9, AROCLOR 1254, Method: PREINCUBATION): inactive; negative
- mutagenic call [18]: inactive; negative
- mutagenic call (Test System: AMES SALMONELLA TYPHIMURIUM, Strain/Indicator: TA1535, Metabolic Activation: RAT, LIVER, S-9, AROCLOR 1254, Method: PREINCUBATION): inactive; negative
- mutagenic call (Test System: AMES SALMONELLA TYPHIMURIUM, Strain/Indicator: TA1537, Metabolic Activation: HAMSTER, LIVER, S-9, AROCLOR 1254, Method: PREINCUBATION): inactive; negative
- mutagenic call [21]: inactive; negative
- mutagenic call (Test System: AMES SALMONELLA TYPHIMURIUM, Strain/Indicator: TA1537, Metabolic Activation: RAT, LIVER, S-9, AROCLOR 1254, Method: PREINCUBATION): inactive; negative

SMILES: COc1ccc(N=[N+]([O-])c2ccc(OC)cc2)cc1
- mutagenic call (Test System: AMES SALMONELLA TYPHIMURIUM, Strain/Indicator: TA97, Metabolic Activation: HAMSTER, LIVER, S-9, AROCLOR 1254 (5%), Method: PREINCUBATION): inactive; negative
- mutagenic call (Test System: AMES SALMONELLA TYPHIMURIUM, Strain/Indicator: TA97, Metabolic Activation: HAMSTER, LIVER, S-9, AROCLOR 1254 (10 OR 30%), Method: PREINCUBATION): active; positive
- mutagenic call [3]: inactive; negative
- mutagenic call (Test System: AMES SALMONELLA TYPHIMURIUM, Strain/Indicator: TA97, Metabolic Activation: RAT, LIVER, S-9, AROCLOR 1254 (5 OR 10%), Method: PREINCUBATION): active; positive
- mutagenic call [5]: inactive; negative
- mutagenic call [7]: inactive; negative
- mutagenic call [8]: inactive; negative
- mutagenic call [10]: inactive; negative
- mutagenic call [12]: inactive; negative
- mutagenic call [13]: inactive; negative
- mutagenic call [15]: inactive; negative
- mutagenic call [17]: inactive; negative
- mutagenic call [18]: inactive; negative
- mutagenic call [22]: inactive; negative
- mutagenic call (Test System: AMES SALMONELLA TYPHIMURIUM, Strain/Indicator: TA1537, Metabolic Activation: HAMSTER, LIVER, S-9, AROCLOR 1254 (5 OR 10%), Method: PREINCUBATION): inactive; negative
- mutagenic call [20]: active; positive
- mutagenic call [21]: inactive; negative
